Results from the NIST ThermoML archive (doi:10.1016/j.fluid.2007.06.019).
“And” between values parts separate entries of the source, which are not always exact repeats. Equal entries are not always repeated. Numbers after ± are expanded uncertainties.

Conditions: Liquid, Alternating current cell with electrodes

CCCCCCCC[n+]1ccn(C)c1.F[B-](F)(F)F [1-methyl-3-octylimidazolium tetrafluoroborate]
Conditions	electrical conductivity
273.23 K, 101.33 kPa	0.00961 ± 0.00058 S/m
273.37 K, 101.33 kPa	0.00973 S/m and 0.00997 S/m
278.15 K, 101.33 kPa	0.0144 S/m and 0.0148 S/m
283.15 K, 101.33 kPa	0.0211 S/m and 0.0218 S/m and 0.0212 S/m
288.15 K, 101.33 kPa	0.0303 S/m and 0.0305 S/m
288.16 K, 101.33 kPa	0.0312 ± 0.0019 S/m
293.15 K, 101.33 kPa	0.0435 S/m and 0.0423 S/m
293.16 K, 101.33 kPa	0.0427 ± 0.0026 S/m
298.15 K, 100 kPa	0.0587 ± 0.0036 S/m
298.15 K, 101.33 kPa	0.0584 S/m [middle of 5 runs]
298.15 K, 24500 kPa	0.0441 ± 0.0027 S/m
298.15 K, 49500 kPa	0.0333 ± 0.002 S/m
298.15 K, 73500 kPa	0.0257 ± 0.0016 S/m
298.15 K, 98400 kPa	0.0197 ± 0.0012 S/m
298.15 K, 122900 kPa	0.0152 ± 0.00093 S/m
298.15 K, 147100 kPa	0.012 ± 0.00073 S/m
298.15 K, 171600 kPa	0.00941 ± 0.00058 S/m
298.15 K, 196100 kPa	0.00742 ± 0.00046 S/m
298.16 K, 101.33 kPa	0.058 ± 0.0035 S/m
303.15 K, 101.33 kPa	0.076 S/m and 0.0794 S/m and 0.0775 S/m
308.15 K, 101.33 kPa	0.0992 S/m and 0.104 S/m and 0.102 S/m
313.15 K, 101.33 kPa	0.127 S/m and 0.131 S/m and 0.132 S/m
318.15 K, 101.33 kPa	0.16 S/m and 0.165 S/m and 0.167 S/m
323.11 K, 101.33 kPa	0.198 S/m and 0.205 S/m
323.13 K, 101.33 kPa	0.2 ± 0.012 S/m
323.15 K, 100 kPa	0.203 ± 0.013 S/m
323.15 K, 24500 kPa	0.162 ± 0.0099 S/m
323.15 K, 49300 kPa	0.13 ± 0.0079 S/m
323.15 K, 73500 kPa	0.106 ± 0.0064 S/m
323.15 K, 98100 kPa	0.0853 ± 0.0052 S/m
323.15 K, 122600 kPa	0.0695 ± 0.0042 S/m
323.15 K, 147600 kPa	0.0567 ± 0.0034 S/m
323.15 K, 171600 kPa	0.0468 ± 0.0028 S/m
323.15 K, 196100 kPa	0.0386 ± 0.0024 S/m
328.15 K, 101.33 kPa	0.244 S/m and 0.252 S/m
328.19 K, 101.33 kPa	0.246 ± 0.015 S/m
333.11 K, 101.33 kPa	0.304 ± 0.018 S/m
333.12 K, 101.33 kPa	0.294 ± 0.018 S/m
333.16 K, 101.33 kPa	0.298 ± 0.018 S/m
338.12 K, 101.33 kPa	0.355 ± 0.021 S/m
338.2 K, 101.33 kPa	0.353 S/m and 0.364 S/m
343.16 K, 101.33 kPa	0.42 ± 0.025 S/m
343.2 K, 101.33 kPa	0.416 S/m and 0.43 S/m
348.15 K, 100 kPa	0.486 ± 0.029 S/m
348.15 K, 24500 kPa	0.406 ± 0.025 S/m
348.15 K, 49000 kPa	0.339 ± 0.021 S/m
348.15 K, 73500 kPa	0.287 ± 0.017 S/m
348.15 K, 98400 kPa	0.242 ± 0.015 S/m
348.15 K, 122600 kPa	0.206 ± 0.012 S/m
348.15 K, 147100 kPa	0.175 ± 0.011 S/m
348.15 K, 171600 kPa	0.149 ± 0.009 S/m
348.15 K, 196100 kPa	0.128 ± 0.0077 S/m
348.16 K, 101.33 kPa	0.485 ± 0.029 S/m
348.17 K, 101.33 kPa	0.502 ± 0.03 S/m
348.24 K, 101.33 kPa	0.494 ± 0.03 S/m
353.15 K, 101.33 kPa	0.561 S/m and 0.581 S/m
353.21 K, 101.33 kPa	0.572 ± 0.034 S/m

CCCCCCCC[n+]1ccn(C)c1.F[P-](F)(F)(F)(F)F [1-octyl-3-methylimidazolium hexafluorophosphate]
Conditions	electrical conductivity
273.2 K, 101.33 kPa	0.00325 ± 0.0002 S/m
273.22 K, 101.33 kPa	0.00331 ± 0.0002 S/m
278.15 K, 101.33 kPa	0.0053 S/m and 0.0052 S/m
283.15 K, 101.33 kPa	0.00823 S/m and 0.00822 S/m and 0.00807 S/m
288.15 K, 101.33 kPa	0.0121 ± 0.00073 S/m
288.16 K, 101.33 kPa	0.0124 S/m
293.15 K, 101.33 kPa	0.0181 S/m and 0.0182 S/m and 0.0177 S/m
298.15 K, 100 kPa	0.0263 ± 0.0016 S/m
298.15 K, 101.33 kPa	0.0257 S/m [middle of 4 runs]
298.15 K, 19600 kPa	0.0202 ± 0.0012 S/m
298.15 K, 39200 kPa	0.0154 ± 0.00095 S/m
298.15 K, 49500 kPa	0.0134 ± 0.00083 S/m
298.15 K, 59100 kPa	0.0117 ± 0.00072 S/m
298.15 K, 78500 kPa	0.00918 ± 0.00057 S/m
298.15 K, 98100 kPa	0.00712 ± 0.00044 S/m
303.15 K, 101.33 kPa	0.036 S/m and 0.0353 S/m and 0.0358 S/m
308.15 K, 101.33 kPa	0.0479 S/m and 0.048 S/m
308.16 K, 101.33 kPa	0.0493 S/m and 0.0489 S/m
313.15 K, 101.33 kPa	0.0655 S/m and 0.0653 S/m
313.16 K, 101.33 kPa	0.0659 S/m and 0.0654 S/m
318.15 K, 101.33 kPa	0.0863 S/m [middle of 4 runs]
323.11 K, 101.33 kPa	0.108 ± 0.0065 S/m
323.13 K, 101.33 kPa	0.11 ± 0.0066 S/m
323.15 K, 100 kPa	0.107 ± 0.0069 S/m
323.15 K, 101.33 kPa	0.111 S/m
323.15 K, 24200 kPa	0.0814 ± 0.005 S/m
323.15 K, 49000 kPa	0.0625 ± 0.0038 S/m
323.15 K, 73500 kPa	0.0483 ± 0.0029 S/m
323.15 K, 98100 kPa	0.0375 ± 0.0023 S/m
323.15 K, 122600 kPa	0.0292 ± 0.0018 S/m
323.15 K, 147100 kPa	0.0229 ± 0.0014 S/m
323.15 K, 171300 kPa	0.0181 ± 0.0011 S/m
323.15 K, 196100 kPa	0.0143 ± 0.0009 S/m
328.11 K, 101.33 kPa	0.142 ± 0.0085 S/m
328.12 K, 101.33 kPa	0.141 ± 0.0085 S/m
328.13 K, 101.33 kPa	0.136 S/m and 0.137 S/m
333.11 K, 101.33 kPa	0.17 S/m
333.19 K, 101.33 kPa	0.173 ± 0.01 S/m
338.18 K, 101.33 kPa	0.209 S/m and 0.21 S/m
343.16 K, 101.33 kPa	0.254 ± 0.015 S/m
343.17 K, 101.33 kPa	0.253 ± 0.015 S/m
348.15 K, 100 kPa	0.29 ± 0.018 S/m
348.15 K, 24500 kPa	0.233 ± 0.014 S/m
348.15 K, 49300 kPa	0.188 ± 0.011 S/m
348.15 K, 73500 kPa	0.152 ± 0.0092 S/m
348.15 K, 98100 kPa	0.124 ± 0.0075 S/m
348.15 K, 122600 kPa	0.101 ± 0.0061 S/m
348.15 K, 147100 kPa	0.083 ± 0.005 S/m
348.15 K, 171600 kPa	0.0681 ± 0.0041 S/m
348.15 K, 195800 kPa	0.0562 ± 0.0034 S/m
348.17 K, 101.33 kPa	0.304 ± 0.018 S/m
348.18 K, 101.33 kPa	0.303 ± 0.018 S/m
353.17 K, 101.33 kPa	0.358 S/m and 0.36 S/m
